Measured values reported in article PMC5452050 (ACS Omega, 2017).
Residue numbers refer to the chain shown, from its start.

How the values were obtained:
Test in all cases: Kd determination
Format in all cases: binding
FLT3 (K663Q) = target: T1, FLT3 (K663Q) (Homo sapiens, UniProt P36888, K663Q)
T1 sequence (P36888 27-993 K663Q): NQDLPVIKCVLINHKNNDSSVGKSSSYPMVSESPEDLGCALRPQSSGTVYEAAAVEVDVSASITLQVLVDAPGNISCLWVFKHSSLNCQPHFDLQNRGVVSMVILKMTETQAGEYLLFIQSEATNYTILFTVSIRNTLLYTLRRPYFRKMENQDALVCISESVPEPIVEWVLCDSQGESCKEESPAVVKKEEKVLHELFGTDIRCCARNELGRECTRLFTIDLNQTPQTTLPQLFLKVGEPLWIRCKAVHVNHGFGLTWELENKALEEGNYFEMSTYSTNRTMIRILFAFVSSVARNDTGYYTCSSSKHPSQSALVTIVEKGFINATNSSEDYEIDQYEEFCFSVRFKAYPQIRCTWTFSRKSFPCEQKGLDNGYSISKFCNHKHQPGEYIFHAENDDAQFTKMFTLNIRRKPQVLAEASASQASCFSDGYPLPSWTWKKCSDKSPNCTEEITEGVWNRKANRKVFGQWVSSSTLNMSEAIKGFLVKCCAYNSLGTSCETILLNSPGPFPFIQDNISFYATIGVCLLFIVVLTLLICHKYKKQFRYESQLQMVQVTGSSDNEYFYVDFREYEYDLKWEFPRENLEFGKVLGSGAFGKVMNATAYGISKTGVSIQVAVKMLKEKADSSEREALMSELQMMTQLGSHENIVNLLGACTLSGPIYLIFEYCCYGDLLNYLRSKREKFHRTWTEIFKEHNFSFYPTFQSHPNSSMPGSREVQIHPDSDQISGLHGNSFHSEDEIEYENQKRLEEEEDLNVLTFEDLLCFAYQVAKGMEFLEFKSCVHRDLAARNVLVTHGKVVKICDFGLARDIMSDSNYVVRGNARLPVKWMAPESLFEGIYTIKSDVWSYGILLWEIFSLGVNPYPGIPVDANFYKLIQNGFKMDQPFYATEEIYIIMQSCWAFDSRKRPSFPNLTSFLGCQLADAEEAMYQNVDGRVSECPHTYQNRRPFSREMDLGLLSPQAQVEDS

FLT3 = target: T2, FLT3 (Homo sapiens, UniProt P36888)
T2 sequence (P36888 27-993): T1 sequence (P36888 27-993 K663Q) with Q637K

FLT3 (D835V) = target: T3, FLT3 (D835V) (Homo sapiens, UniProt P36888, D835V)
T3 sequence (P36888 27-993 D835V): T1 sequence (P36888 27-993 K663Q) with Q637K, D809V

Row | Kd (FLT3 (K663Q)) | Kd (FLT3) | fold more potent against FLT3 than PDGFRB and JAK1 JH2 domain (Kd) (FLT3) | Kd (FLT3 (D835V)) | Compound
1 | 13 nM | 3.6 nM | approximately 8 fold | 0.8 nM | CC(C)Nc1ccnc(Nc2cccc(-c3cccnc3)c2)n1 [Compound 5e, N^4-Isopropyl-N^2-(3-(pyridin-3-yl)phenyl)pyrimidine-2,4-diamine]
2 | 110 nM | 61 nM |  | 7.7 nM | c1cncc(-c2cccc(Nc3nccc(NC4CCCCC4)n3)c2)c1 [Compound 1, N^4-Cyclohexyl-N^2-(3-(pyridin-3-yl)phenyl)pyrimidine-2,4-diamine]
3 | > 10000 nM | > 10000 nM |  | > 10000 nM | CC(C)Nc1ccnc(Nc2ccccc2-c2ccccc2)n1 [Compound 6a, N^2-([1,1′-Biphenyl]-2-yl)-N^4-isopropylpyrimidine-2,4-diamine]
